Results taken from the supplement of paper PMC10011410.
± gives the standard deviation of the averaged measurements.

What was measured:
[1] = tested on: U-2 OS; assay: relative cell count vs DMSO (cell painting) (fraction of DMSO control); higher = more cells remaining (less cytotoxic); conditions: 24 h
How it was run: (§1)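 Images taken on an Opera Phenix of U-2 OS cells stained with MitoTracker, concanavalin A, phalloidin, wheat germ agglutinin, Hoechst and SYTO 14 were processed in CellProfiler, with features normalized to DMSO cells on the same plate. The cells, about 1,500 per well in 384-well plates, had been treated by pin tool for 24 h at 37 °C, usually at six 2-fold concentrations from 20 μM to 625 nM. The activity score measures Mahalanobis distance from DMSO wells, and cell count is expressed relative to DMSO wells. Each value averages four replicate plates.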

[2] = tested on: U-2 OS; assay: cell painting activity score (Mahalanobis distance from DMSO wells); higher = stronger morphological phenotype; conditions: 24 h
How it was run: as §1

[3] = tested on: U-2 OS; assay: AUC of culture confluence over time (live-cell imaging) (AUC (confluence % x time)); higher = more confluent culture (less growth inhibition)
How it was run: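 The value is the area under the curve of confluence plotted against time. U-2 OS cells in F-12K medium with 10% FBS were seeded at 750 per well in 384-well plates, then treated by pin tool 24 h later, most compounds at 20, 10 and 5 μM with 0.2% DMSO. At 37 °C, an Incucyte S3 with a 10x objective imaged the wells every 4 h for up to 60 h.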

[4] = tested on: U-2 OS; assay: cell viability (CellTiter-Glo) relative to DMSO (% of control); higher = more viable; conditions: 24 h
Description: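 Cell viability of U-2 OS cells by CellTiter-Glo after 24 h compound treatment at 5, 10 and 20 uM (some at 40 and 80 uM), measured in parallel with the glutathione assay, as percent of DMSO control. Five technical replicate plates, averaged.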

[5] = tested on: U-2 OS; assay: intracellular GSH:GSSG ratio (calculated); higher = more reduced glutathione pool; conditions: 24 h
Description: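 Intracellular glutathione in U-2 OS cells after 24 h compound treatment at 5, 10 and 20 uM (some at 40 and 80 uM). Total glutathione and GSSG were measured with the GSH/GSSG-Glo kit, and the GSH:GSSG ratio was calculated. Mean of five technical replicate plates.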

[6] = tested on: U-2 OS; assay: total intracellular glutathione (GSH + GSSG) relative to DMSO (% of control); higher = more glutathione; conditions: 24 h
Description: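 Total intracellular glutathione (GSH + GSSG) in U-2 OS cells by GSH/GSSG-Glo after 24 h compound treatment at 5, 10 and 20 uM (some at 40 and 80 uM), as percent of DMSO control. Five technical replicate plates, averaged.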

CCCCCOc1ccc(/C=C\c2cccc(O)c2C(=O)O)cc1
relative cell count ([1]; 0.625 µM): 0.986
relative cell count ([1]; 1.25 µM): 0.944
relative cell count ([1]; 2.5 µM): 0.908
relative cell count ([1]; 5 µM): 0.973
relative cell count ([1]; 10 µM): 1.05
relative cell count ([1]; 20 µM): 0.952
relative cell count ([1]; 40 µM): 0.501
relative cell count ([1]; 80 µM): 0.24
cell painting activity score ([2]; 0.625 µM): 5.46
cell painting activity score ([2]; 1.25 µM): 4.75
cell painting activity score ([2]; 2.5 µM): 3.23
cell painting activity score ([2]; 5 µM): 3.6
cell painting activity score ([2]; 10 µM): 4.31
cell painting activity score ([2]; 20 µM): 4.17
cell painting activity score ([2]; 40 µM): 6.92
cell painting activity score ([2]; 80 µM): 17.3
AUC of culture confluence over time ([3]; 5 µM): 38.6
AUC of culture confluence over time ([3]; 10 µM): 40.9
AUC of culture confluence over time ([3]; 20 µM): 46.8
AUC of culture confluence over time ([3]; 40 µM): 34.2
AUC of culture confluence over time ([3]; 80 µM): 44.5
cell viability ([4]; 5 µM): 106 ± 3.3
cell viability ([4]; 10 µM): 97.9 ± 5.9
cell viability ([4]; 20 µM): 106 ± 6.7
cell viability ([4]; 40 µM): 104 ± 5.3
cell viability ([4]; 80 µM): 99 ± 5.7
intracellular GSH:GSSG ratio ([5]; 5 µM): 21.5
intracellular GSH:GSSG ratio ([5]; 10 µM): 17.6
intracellular GSH:GSSG ratio ([5]; 20 µM): 21.8
intracellular GSH:GSSG ratio ([5]; 40 µM): 14.2
intracellular GSH:GSSG ratio ([5]; 80 µM): 35.3
total intracellular glutathione ([6]; 5 µM): 75.1 ± 6.4
total intracellular glutathione ([6]; 10 µM): 69.9 ± 7
total intracellular glutathione ([6]; 20 µM): 81.1 ± 8.2
total intracellular glutathione ([6]; 40 µM): 78.4 ± 6.4
total intracellular glutathione ([6]; 80 µM): 76.9 ± 9.8

C[C@@H]1C[C@H]2O[C@@H]2/C=C\C=C\C(=O)Cc2c(Cl)c(O)cc(O)c2C(=O)O1
relative cell count ([1]; 0.625 µM): 0.852 ± 0.039
relative cell count ([1]; 1.25 µM): 0.731 ± 0.047
relative cell count ([1]; 2.5 µM): 0.597 ± 0.06
relative cell count ([1]; 5 µM): 0.466 ± 0.042
relative cell count ([1]; 10 µM): 0.419 ± 0.033
relative cell count ([1]; 20 µM): 0.388 ± 0.018
cell painting activity score ([2]; 0.625 µM): 14.6 ± 1.8
cell painting activity score ([2]; 1.25 µM): 14.1 ± 1.8
cell painting activity score ([2]; 2.5 µM): 15.2 ± 1.9
cell painting activity score ([2]; 5 µM): 16.2 ± 1.9
cell painting activity score ([2]; 10 µM): 16.1 ± 1.1
cell painting activity score ([2]; 20 µM): 15.3 ± 0.8
AUC of culture confluence over time ([3]; 0.625 µM): 57.8
AUC of culture confluence over time ([3]; 1.25 µM): 48.6
AUC of culture confluence over time ([3]; 2.5 µM): 46.8
AUC of culture confluence over time ([3]; 5 µM): 19.9
AUC of culture confluence over time ([3]; 10 µM): 21.3
AUC of culture confluence over time ([3]; 20 µM): 20.2
cell viability ([4]; 5 µM): 86.8 ± 3
cell viability ([4]; 10 µM): 24.7 ± 2.7
cell viability ([4]; 20 µM): 4.77 ± 0.71
intracellular GSH:GSSG ratio ([5]; 5 µM): 27
intracellular GSH:GSSG ratio ([5]; 10 µM): 7.74
intracellular GSH:GSSG ratio ([5]; 20 µM): 3.63
total intracellular glutathione ([6]; 5 µM): 87.8 ± 4.1
total intracellular glutathione ([6]; 10 µM): 36 ± 6.1
total intracellular glutathione ([6]; 20 µM): 12.9 ± 0.62

CCOc1cc2ncc(C#N)c(Nc3ccc(OCc4ccccn4)c(Cl)c3)c2cc1NC(=O)/C=C/CN(C)C
relative cell count ([1]; 0.625 µM): 0.995
relative cell count ([1]; 1.25 µM): 0.842
relative cell count ([1]; 2.5 µM): 0.811
relative cell count ([1]; 5 µM): 0.76
relative cell count ([1]; 10 µM): 0.778
relative cell count ([1]; 20 µM): 0.757
cell painting activity score ([2]; 0.625 µM): 6.66
cell painting activity score ([2]; 1.25 µM): 11.4
cell painting activity score ([2]; 2.5 µM): 14.6
cell painting activity score ([2]; 5 µM): 10.9
cell painting activity score ([2]; 10 µM): 9.93
cell painting activity score ([2]; 20 µM): 13.4
AUC of culture confluence over time ([3]; 5 µM): 33.1
AUC of culture confluence over time ([3]; 10 µM): 34.1
AUC of culture confluence over time ([3]; 20 µM): 21.3
cell viability ([4]; 5 µM): 71.7 ± 4.9
cell viability ([4]; 10 µM): 71 ± 3.7
cell viability ([4]; 20 µM): 73.1 ± 7.3
intracellular GSH:GSSG ratio ([5]; 5 µM): 11.7
intracellular GSH:GSSG ratio ([5]; 10 µM): 10.4
intracellular GSH:GSSG ratio ([5]; 20 µM): 8.69
total intracellular glutathione ([6]; 5 µM): 58.3 ± 2.8
total intracellular glutathione ([6]; 10 µM): 61.3 ± 2.5
total intracellular glutathione ([6]; 20 µM): 59.5 ± 3.7

C=CC(=O)Nc1cccc(Oc2nc(Nc3ccc(N4CCN(C)CC4)cc3OC)ncc2Cl)c1
relative cell count ([1]; 0.625 µM): 1.09
relative cell count ([1]; 1.25 µM): 1
relative cell count ([1]; 2.5 µM): 0.976
relative cell count ([1]; 5 µM): 0.957
relative cell count ([1]; 10 µM): 0.914
relative cell count ([1]; 20 µM): 0.342
cell painting activity score ([2]; 0.625 µM): 5.47
cell painting activity score ([2]; 1.25 µM): 8.25
cell painting activity score ([2]; 2.5 µM): 10.7
cell painting activity score ([2]; 5 µM): 9.73
cell painting activity score ([2]; 10 µM): 12.1
cell painting activity score ([2]; 20 µM): 14.9
AUC of culture confluence over time ([3]; 5 µM): 42.4
AUC of culture confluence over time ([3]; 10 µM): 21.9
AUC of culture confluence over time ([3]; 20 µM): 5.33
cell viability ([4]; 5 µM): 87.2 ± 3.6
cell viability ([4]; 10 µM): 76 ± 1.4
cell viability ([4]; 20 µM): 39.8 ± 1.5
intracellular GSH:GSSG ratio ([5]; 5 µM): 24.9
total intracellular glutathione ([6]; 5 µM): 110 ± 7.6
total intracellular glutathione ([6]; 10 µM): 102 ± 5.2
total intracellular glutathione ([6]; 20 µM): 108 ± 2
